Results on 1 molecule are retold here after patent US12077503B2, “Substituted cyclic amides and their use as herbicides” (FMC CORPORATION, priority 2015, dated 2024).

Assay type in all cases: in vivo
In assay [1] the test system is wheat (Triticum aestivum). Kind of assay: Test A postemergence. As to conditions: Triticum aestivum, post-emergence, 240 h, 125 g ai/ha, postemergence, visual injury vs untreated controls after approx. 10 d; 0 = no effect, 100 = complete control; read-out: Wheat plant response rating (0 to 100 scale). An outline of the steps:
(§1)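 Seeds sprayed preemergence with a directed soil spray, or plants at 2 to 10 cm height and one- to two-leaf stage sprayed postemergence, with test chemicals in a non-phytotoxic solvent mixture containing surfactant, in loam soil–sand blend. Injury rated visually against untreated controls after about 10 d in greenhouse, 0 (no effect) to 100 (complete control).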

For assay [2], the system named is ragweed (common ragweed, Ambrosia elatior). In words: Test A postemergence. Conditions: Ambrosia artemisiifolia, post-emergence, 240 h, postemergence. The method in brief:
as §1

For assay [3], the system named is blackgrass (Alopecurus myosuroides). In words: Test A postemergence. As to conditions: Alopecurus myosuroides, post-emergence, 240 h, postemergence. The method in brief:
as §1

The subject of assay [4] is barnyardgrass (Echinochloa crus-galli). In words: Test A postemergence. As to conditions: Echinochloa crus-galli, post-emergence, 240 h, postemergence. An outline of the steps:
as §1

Assay [5] has as its system giant foxtail (Setaria faberii). Kind of assay: Test A postemergence. As to conditions: Setaria faberi, post-emergence, 240 h, postemergence. The method in brief:
as §1

In assay [6] the test system is corn (Zea mays). In words: Test A postemergence. As to conditions: Zea mays, post-emergence, 240 h, postemergence. The method in brief:
as §1

Assay [7] concerns Galium (catchweed bedstraw, Galium aparine). Kind of assay: Test A postemergence. As to conditions: Galium, post-emergence, 240 h, postemergence. The method in brief: as §1
Assay [8] concerns Kochia (Kochia scoparia). Kind of assay: Test A postemergence. As to conditions: Bassia scoparia, post-emergence, 240 h, postemergence. The method in brief:
as §1

The test system of assay [9] is pigweed (Amaranthus retroflexus). Kind of assay: Test A postemergence. Conditions: Amaranthus retroflexus, post-emergence, 240 h, postemergence. The method in brief: as §1
Assay [10] deals with ryegrass, Italian (Italian ryegrass, Lolium multiflorum). Kind of assay: Test A postemergence. Conditions: Lolium multiflorum, post-emergence, 240 h, postemergence. The method in brief: as §1
The subject of assay [11] is rice (Oryra sativa). In words: Test B flooded paddy test. Conditions: Oryza sativa, 250 g ai/ha, Flood; 0 to 100 scale where 0 is no effect and 100 is complete control; read-out: Rice plant response rating. An outline of the steps: (§2)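 Evaluation by eye, against controls, occurred 13–15 d post-treatment in a greenhouse, using a 0 (no effect) to 100 (complete control) scale. Application was into the paddy water, 3 cm deep over the soil, on 2-leaf plants.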

Assay [12] deals with barnyardgrass (Echinochloa crus-galli). In words: Test B flooded paddy test. Conditions: Echinochloa crus-galli, 250 g ai/ha, Flood; 0 to 100 scale where 0 is no effect and 100 is complete control; read-out: Barnyardgrass plant response rating. The method in brief: as §2
Assay [13] deals with ducksalad (Heteranthera limosa). Kind of assay: Test B flooded paddy test. Conditions: Heteranthera limosa, 250 g ai/ha, Flood; 0 to 100 scale where 0 is no effect and 100 is complete control; read-out: Ducksalad plant response rating. An outline of the steps: as §2
Assay [14] concerns sedge, umbrella (small-flower umbrella sedge, Cyperus difformis). Kind of assay: Test B flooded paddy test. As to conditions: Cyperus difformis, 250 g ai/ha, Flood; 0 to 100 scale where 0 is no effect and 100 is complete control; read-out: Sedge, Umbrella plant response rating. The method in brief:
as §2

On to `O=C1NC[C@H](c2cccc(C(F)(F)F)c2)C1C(=O)Nc1ccccc1CO` (some centres unmarked) [Compound 1244], for which the plant injury at 125 g/ha is 0% in assay [1] and 0% in [6] (125 g ai/ha, visual injury vs untreated controls after approx. 10 d, 0 = no effect, 100 = complete control, read-out: Corn plant response rating (0 to 100 scale)). Further, the pest or weed control at 125 g/ha in assay [2] (125 g ai/ha, visual injury vs untreated controls after approx. 10 d, 0 = no effect, 100 = complete control, read-out: Ragweed plant response rating (0 to 100 scale)) is 0%; in [3] (125 g ai/ha, visual injury vs untreated controls after approx. 10 d, 0 = no effect, 100 = complete control, read-out: Blackgrass plant response rating (0 to 100 scale)), 0%; in assay [4] (125 g ai/ha, visual injury vs untreated controls after approx. 10 d, 0 = no effect, 100 = complete control, read-out: Barnyardgrass plant response rating (0 to 100 scale)), 50%; in assay [5] (125 g ai/ha, visual injury vs untreated controls after approx. 10 d, 0 = no effect, 100 = complete control, read-out: Foxtail, Giant plant response rating (0 to 100 scale)), 50%; in assay [7] (125 g ai/ha, visual injury vs untreated controls after approx. 10 d, 0 = no effect, 100 = complete control, read-out: Galium plant response rating (0 to 100 scale)), 0%; in assay [8] (125 g ai/ha, visual injury vs untreated controls after approx. 10 d, 0 = no effect, 100 = complete control, read-out: Kochia plant response rating (0 to 100 scale)), 0%. The pest or weed control at 125 g/ha was determined as 0% in [9] (125 g ai/ha, visual injury vs untreated controls after approx. 10 d, 0 = no effect, 100 = complete control, read-out: Pigweed plant response rating (0 to 100 scale)) and 0% in [10] (125 g ai/ha, visual injury vs untreated controls after approx. 10 d, 0 = no effect, 100 = complete control, read-out: Ryegrass, Italian plant response rating (0 to 100 scale)). Moreover, the pest or weed control at 500 g/ha was 0% in assay [2] (500 g ai/ha, 0 to 100 scale, 0 is no effect, 100 is complete control, read-out: Ragweed plant response rating); 50% in [3] (500 g ai/ha, 0 to 100 scale, 0 is no effect, 100 is complete control, read-out: Blackgrass plant response rating); 80% in assay [4] (500 g ai/ha, 0 to 100 scale, 0 is no effect, 100 is complete control, read-out: Barnyardgrass plant response rating); 90% in [5] (500 g ai/ha, 0 to 100 scale, 0 is no effect, 100 is complete control, read-out: Foxtail, Giant plant response rating); 20% in [7] (500 g ai/ha, 0 to 100 scale, 0 is no effect, 100 is complete control, read-out: Galium plant response rating); 0% in assay [8] (500 g ai/ha, 0 to 100 scale, 0 is no effect, 100 is complete control, read-out: Kochia plant response rating). The pest or weed control at 500 g/ha in assay [9] (500 g ai/ha, 0 to 100 scale, 0 is no effect, 100 is complete control, read-out: Pigweed plant response rating) turned out to be 0%; in assay [10] (500 g ai/ha, 0 to 100 scale, 0 is no effect, 100 is complete control, read-out: Ryegrass, Italian plant response rating), 30%. In addition, the plant injury at 500 g/ha in [6] (500 g ai/ha, 0 to 100 scale, 0 is no effect, 100 is complete control, read-out: Corn plant response rating) came out at 40%. In addition, the pest or weed control at 250 g/ha came to 0% in assay [11], 20% in assay [12], 30% in assay [13] and 0% in assay [14].
